Molecular target: T1, JAK2 (JH1domain-catalytic, Y1007F,Y1008F) kinase (Homo sapiens, UniProt O60674, Y1007F/Y1008F)
T1 construct: JAK2 (JH1domain-catalytic, Y1007F,Y1008F) kinase was expressed as N-terminal fusion; made in house; host or cells: transiently transfected HEK293 cells
Assay: JAK2 JH1 Domain Binding Assay
Conditions: qPCR readout

T1 sequence (O60674 849-1124 Y1007F/Y1008F limits assumed): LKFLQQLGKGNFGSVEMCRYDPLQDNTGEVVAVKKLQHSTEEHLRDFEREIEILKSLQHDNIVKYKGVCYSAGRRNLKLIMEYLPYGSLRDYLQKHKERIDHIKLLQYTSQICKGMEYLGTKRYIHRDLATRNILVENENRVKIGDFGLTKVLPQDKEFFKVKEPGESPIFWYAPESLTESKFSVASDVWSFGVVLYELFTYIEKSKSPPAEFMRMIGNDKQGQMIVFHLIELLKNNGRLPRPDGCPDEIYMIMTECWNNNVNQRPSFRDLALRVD

Kd [µM]	Structure (SMILES)
< 0.01	COc1c(Oc2cnn3ccncc23)cnc2nc(Nc3cc(C4CC4)cn(C)c3=O)n(C)c12 [Example I-64, 5-cyclopropyl-3-((7-methoxy-1-methyl-6-(pyrazolo[1,5-a]pyrazin-3-yloxy)-1H-imidazo[4,5-b]pyridin-2-yl)amino)-1-methylpyridin-2(1H)-one]
< 0.01	Cn1c(Nc2cc(C3CC3)cn(CCO)c2=O)nc2ncc(Oc3cnn4ccncc34)c(Cl)c21 [Example I-65, 3-((7-chloro-1-methyl-6-(pyrazolo[1,5-a]pyrazin-3-yloxy)-1H-imidazo[4,5-b]pyridin-2-yl)amino)-5-cyclopropyl-1-(2-hydroxyethyl)pyridin-2(1H)-one]
< 0.01	Cn1c(Nc2cc(C(C)(C)C)n([C@H]3CCO[C@@H]3CO)n2)nc2ncc(Oc3cnn4ccncc34)c(Cl)c21 [Example I-66, ((2S,3S)-3-(5-(tert-butyl)-3-((7-chloro-1-methyl-6-(pyrazolo[1,5-a]pyrazin-3-yloxy)-1H-imidazo[4,5-b]pyridin-2-yl)amino)-1H-pyrazol-1-yl)tetrahydrofuran-2-yl)methanol]
< 0.01	COc1c(Oc2cnn3ccncc23)cnc2nc(Nc3cc(C4CC4)cn(C4CCOCC4)c3=O)n(C)c12 [Example I-67, 5-cyclopropyl-3-((7-methoxy-1-methyl-6-(pyrazolo[1,5-a]pyrazin-3-yloxy)-1H-imidazo[4,5-b]pyridin-2-yl)amino)-1-(tetrahydro-2H-pyran-4-yl)pyridin-2(1H)-one]
< 0.01	Cn1c(Nc2cc(C3CC3)cn(C3CCOCC3)c2=O)nc2ncc(Oc3cnn4ccncc34)c(Cl)c21 [Example I-68, 3-((7-chloro-1-methyl-6-(pyrazolo[1,5-a]pyrazin-3-yloxy)-1H-imidazo[4,5-b]pyridin-2-yl)amino)-5-cyclopropyl-1-(tetrahydro-2H-pyran-4-yl)pyridin-2(1H)-one]
< 0.01	Cn1c(Nc2cc(C3CC3)cn([C@H]3C[C@@H](O)C3)c2=O)nc2ncc(Oc3cnn4ccncc34)c(Cl)c21 [Example I-70, 3-((7-chloro-1-methyl-6-(pyrazolo[1,5-a]pyrazin-3-yloxy)-1H-imidazo[4,5-b]pyridin-2-yl)amino)-5-cyclopropyl-1-((1s,3s)-3-hydroxycyclobutyl)pyridin-2(1H)-one]
< 0.01	COc1c(Oc2cnn3ccncc23)cnc2nc(Nc3cc(C4CC4)cn([C@H]4C[C@@H](O)C4)c3=O)n(C)c12 [Example I-74, cis-5-cyclopropyl-1-(3-hydroxycyclobutyl)-3-((7-methoxy-1-methyl-6-(pyrazolo[1,5-a]pyrazin-3-yloxy)-1H-imidazo[4,5-b]pyridin-2-yl)amino)pyridin-2(1H)-one]
< 0.01	COc1c(Oc2cnn3ccncc23)cnc2nc(Nc3cc(C4CC4)cn([C@H]4C[C@H](O)C4)c3=O)n(C)c12 [Example I-75, trans-5-cyclopropyl-1-(3-hydroxycyclobutyl)-3-((7-methoxy-1-methyl-6-(pyrazolo[1,5-a]pyrazin-3-yloxy)-1H-imidazo[4,5-b]pyridin-2-yl)amino)pyridin-2(1H)-one]
< 0.01	Cn1c(Nc2cc(C3CC3)cn([C@H]3C[C@H](C#N)C3)c2=O)nc2ncc(Oc3cnn4ccncc34)c(Cl)c21 [Example I-77, trans-3-(3-((7-chloro-1-methyl-6-(pyrazolo[1,5-a]pyrazin-3-yloxy)-1H-imidazo[4,5-b]pyridin-2-yl)amino)-5-cyclopropyl-2-oxopyridin-1(2H)-yl)cyclobutane-1-carbonitrile]
< 0.01	Cn1c(Nc2cc(C3CC3)cn(CCO)c2=O)nc2ncc(Oc3cnn4ccccc34)c(Cl)c21 [Example I-78, 3-((7-chloro-1-methyl-6-(pyrazolo[1,5-a]pyridin-3-yloxy)-1H-imidazo[4,5-b]pyridin-2-yl)amino)-5-cyclopropyl-1-(2-hydroxyethyl)pyridin-2(1H)-one]
< 0.01	Cn1c(Nc2cc(C3CC3)cn([C@H]3C[C@H](O)C3)c2=O)nc2ncc(Oc3cnn4ccccc34)c(Cl)c21 [Example I-79, trans-3-((7-chloro-1-methyl-6-(pyrazolo[1,5-a]pyridin-3-yloxy)-1H-imidazo[4,5-b]pyridin-2-yl)amino)-5-cyclopropyl-1-(3-hydroxycyclobutyl)pyridin-2(1H)-one]
< 0.01	Cn1c(Nc2cc(C3CC3)cn([C@H]3C[C@@H](C#N)C3)c2=O)nc2ncc(Oc3cnn4ccncc34)c(Cl)c21 [Example I-80, cis-3-(3-((7-chloro-1-methyl-6-(pyrazolo[1,5-a]pyrazin-3-yloxy)-1H-imidazo[4,5-b]pyridin-2-yl)amino)-5-cyclopropyl-2-oxopyridin-1(2H)-yl)cyclobutane-1-carbonitrile]
0.01 to 0.05	Cn1c(Nc2cc(C(C)(C)C)n([C@H]3CCO[C@@H]3CO)n2)nc2ncc(Oc3cnc4ccnn4c3)c(Cl)c21 [Example I-82, ((2S,3S)-3-(5-(tert-butyl)-3-((7-chloro-1-methyl-6-(pyrazolo[1,5-a]pyrimidin-6-yloxy)-1H-imidazo[4,5-b]pyridin-2-yl)amino)-1H-pyrazol-1-yl)tetrahydrofuran-2-yl)methanol]
0.01 to 0.05	Cn1c(Nc2cc(C(C)(C)C)n([C@H]3CCO[C@@H]3CO)n2)nc2ncc(Oc3cnn4ccnc4c3)c(Cl)c21 [Example I-83, ((2S,3S)-3-(5-(tert-butyl)-3-((7-chloro-6-(imidazo[1,2-b]pyridazin-7-yloxy)-1-methyl-1H-imidazo[4,5-b]pyridin-2-yl)amino)-1H-pyrazol-1-yl)tetrahydrofuran-2-yl)methanol]
< 0.01	Cn1cc(C2CC2)cc(Nc2nc3ncc(Oc4cnc5cnc(C6CC6)n5c4)c(Cl)c3n2C)c1=O [Example I-84, 3-((7-chloro-6-((6-cyclopropylimidazo[1,5-a]pyrimidin-3-yl)oxy)-1-methyl-1H-imidazo[4,5-b]pyridin-2-yl)amino)-5-cyclopropyl-1-methylpyridin-2(1H)-one]
< 0.01	Cn1c(Nc2cc(C3CC3)cn(C3CC4(COC4)C3)c2=O)nc2ncc(Oc3cnn4ccncc34)c(Cl)c21 [Example I-85, 3-((7-chloro-1-methyl-6-(pyrazolo[1,5-a]pyrazin-3-yloxy)-1H-imidazo[4,5-b]pyridin-2-yl)amino)-5-cyclopropyl-1-(2-oxaspiro[3.3]heptan-6-yl)pyridin-2(1H)-one]
< 0.01	Cn1c(Nc2cc(C(C)(C)C)n(C3COC3)n2)nc2ncc(Oc3cnn4ccncc34)c(Cl)c21 [Example I-86, N-(5-(tert-butyl)-1-(oxetan-3-yl)-1H-pyrazol-3-yl)-7-chloro-1-methyl-6-(pyrazolo[1,5-a]pyrazin-3-yloxy)-1H-imidazo[4,5-b]pyridin-2-amine]
0.01 to 0.05	Cn1c(Nc2cc(C(C)(C)C)n([C@H]3CCO[C@@H]3CO)n2)nc2ncc(Oc3cnc4cnc(C5CC5)n4c3)c(Cl)c21 [Example I-87, ((2S,3S)-3-(5-(tert-butyl)-3-((7-chloro-6-((6-cyclopropylimidazo[1,5-a]pyrimidin-3-yl)oxy)-1-methyl-1H-imidazo[4,5-b]pyridin-2-yl)amino)-1H-pyrazol-1-yl)tetrahydrofuran-2-yl)methanol]
0.01 to 0.05	Cn1c(Nc2cc(C(C)(C)C)n([C@H]3C[C@H](O)C3)n2)nc2ncc(Oc3cnc4cnc(C5CC5)n4c3)c(Cl)c21 [Example I-88, trans-3-(5-(tert-butyl)-3-((7-chloro-6-((6-cyclopropylimidazo[1,5-a]pyrimidin-3-yl)oxy)-1-methyl-1H-imidazo[4,5-b]pyridin-2-yl)amino)-1H-pyrazol-1-yl)cyclobutan-1-ol]
< 0.01	Cn1c(Nc2cc(C(F)(F)F)cn(C3CC4(COC4)C3)c2=O)nc2ncc(Oc3cnn4ccncc34)c(Cl)c21 [Example I-90, 3-((7-chloro-1-methyl-6-(pyrazolo[1,5-a]pyrazin-3-yloxy)-1H-imidazo[4,5-b]pyridin-2-yl)amino)-1-(2-oxaspiro[3.3]heptan-6-yl)-5-(trifluoromethyl)pyridin-2(1H)-one]
< 0.01	Cn1c(Nc2cc(C(F)(F)F)cn(CCCN3CCOCC3)c2=O)nc2ncc(Oc3cnn4ccncc34)c(Cl)c21 [Example I-91, 3-((7-chloro-1-methyl-6-(pyrazolo[1,5-a]pyrazin-3-yloxy)-1H-imidazo[4,5-b]pyridin-2-yl)amino)-1-(3-morpholinopropyl)-5-(trifluoromethyl)pyridin-2(1H)-one]
< 0.01	Cn1cc(C2CC2)cc(Nc2nc3ncc(Oc4cnc5[nH]ncc5c4)c(Cl)c3n2C)c1=O [Example I-92, 3-((6-((1H-pyrazolo[3,4-b]pyridin-5-yl)oxy)-7-chloro-1-methyl-1H-imidazo[4,5-b]pyridin-2-yl)amino)-5-cyclopropyl-1-methylpyridin-2(1H)-one]
< 0.01	CC(=O)N1CC(n2nc(Nc3nc4ncc(Oc5cnn6ccncc56)c(Cl)c4n3C)cc2C(C)(C)C)C1 [Example I-94, 1-(3-(5-(tert-butyl)-3-((7-chloro-1-methyl-6-(pyrazolo[1,5-a]pyrazin-3-yloxy)-1H-imidazo[4,5-b]pyridin-2-yl)amino)-1H-pyrazol-1-yl)azetidin-1-yl)ethan-1-one]
0.01 to 0.05	COc1c(Oc2cnn3ccncc23)cnc2nc(Nc3cc(C4CC4)cn([C@H]4C[C@H](C#N)C4)c3=O)n(C)c12 [Example I-96, trans-3-(5-cyclopropyl-3-((7-methoxy-1-methyl-6-(pyrazolo[1,5-a]pyrazin-3-yloxy)-1H-imidazo[4,5-b]pyridin-2-yl)amino)-2-oxopyridin-1(2H)-yl)cyclobutane-1-carbonitrile]
< 0.01	Cn1c(Nc2cc(C3CC3)cn(CCCN3CCOCC3)c2=O)nc2ncc(Oc3cnn4ccncc34)c(Cl)c21 [Example I-97, 3-((7-chloro-1-methyl-6-(pyrazolo[1,5-a]pyrazin-3-yloxy)-1H-imidazo[4,5-b]pyridin-2-yl)amino)-5-cyclopropyl-1-(3-morpholinopropyl)pyridin-2(1H)-one]
0.01 to 0.05	COc1c(Oc2cnn3ccccc23)cnc2nc(Nc3cc(C4CC4)cn(CCO)c3=O)n(C)c12 [Example I-100, 5-cyclopropyl-1-(2-hydroxyethyl)-3-((7-methoxy-1-methyl-6-(pyrazolo[1,5-a]pyridin-3-yloxy)-1H-imidazo[4,5-b]pyridin-2-yl)amino)pyridin-2(1H)-one]
